These results are taken from paper PMC5789092 (Scientific Reports, 2018).

For one assay, the system named is HepG2 cells. Put plainly: Hoechst 33258 nuclear morphology, HepG2. The following applies: HepG2, 72 h. It is filed as cell-based, human. How it is done: Figure S2. Induction of apoptosis by active compounds 1 and 1i at the indicated concentrations on HepG2 cells. 72 h after the treatment of these compounds at the indicated concentrations, cells were fixed, washed with PBS, stained with Hoechst 33258, and analyzed for morphological characteristics associated with apoptosis by fluorescence microscopic analysis (20×). NMR spectra

The subject of assay [1] is HUVEC (human umbilical vein endothelial cell). Kind of assay: SRB cytotoxicity assay, HUVEC normal cells. It is filed as cell-based. The following applies: for IC50: Homo sapiens, HUVEC, 72 h, SRB, normal cell line.
Assay [2] relates to HeLa (human cervix cancer). Put plainly: SRB cytotoxicity assay, HeLa. It is filed as cell-based. The note with it: 72 h, mean ± SD.
Assay [3] relates to PC-3 cells. Kind of assay: Hoechst 33258 nuclear chromatin condensation, PC-3. It is filed as cell-based, human. The following applies: PC-3, 72 h; VP-16 0.5 and 1 μM; 1i 1, 2 and 4 μM. How it is done: (§1) Figure 10 Induction of apoptosis by active compound 1i and VP-16 at the indicated concentrations on PC-3 cells. (a) 72 h after the treatment of these compounds at the indicated concentrations, cells were fixed, washed with PBS, stained with Hoechst 33258, and analyzed for morphological characteristics associated with apoptosis by fluorescence microscopic analysis (×20). (b) Compound 1i triggered changes of pro-caspase 3 and PARP by Western blotting analysis. Cells were lysed after 72 h treatment with 1i at the concentration (1, 2 and 4 μM). The lysates were resolved on a 10% SDS-PAGE, transferred on to a nitrocellulose membrane and probed for cleaved caspase 3 and PARP. β-actin was used as a loading control.
Condensation of nuclear chromatin is usually the late apoptotic event and is detected by staining Hoechst 33258[43]. PC-3 cells containing 2.0 × 10^5 cells/well were cultured on coverslips, and kept in six-well plates for 12 h. After 72 h treatment with 1i and VP-16, Hoechst 33258 staining was carried out according to the kit’s procedure (Beyotime Institute Biotechnology, China). The cells were viewed under a fluorescence microscopy (Olympus BX53 + DP72) with a ×20 objective lens.

Assay [4] deals with HEp-2 (human larynx epidermal cancer). Kind of assay: SRB cytotoxicity assay, HEp-2. The following applies: 72 h, mean ± SD. It is filed as cell-based. The text has this: (§2) All the synthesized derivatives of 1 and 2 were screened for their anticancer activities against four human cancer cell lines (HeLa, PC-3, HEp-2 and HepG2) and two normal cell lines (CHO and HUVEC) using the sulforhodamine B (SRB) assay.
(§3) PC-3 (human prostate cancer), HepG2 (human liver cancer) and CHO (Chinese hamster ovary) cell lines were obtained from Shanghai Institute of Biochemistry and Cell Biology, Chinese Academy of Sciences. HeLa (human cervix cancer), HUVEC (human umbilical vein endothelial cells) and HEp-2 (human laryngeal cancer) cell lines were granted by Prof. Lei of college of life sciences, Northwest A&F University. The six cell lines were grown in RPMI-1640 (Gibco) containing 10% (v/v) thermally inactivated fetal bovine serum (FBS), penicillin (100 KU/L) and streptomycin (100 KU/L) at 37 °C in a 5% CO2 humidified incubator.
(§4) In vitro cytotoxicity was assessed by using the SRB colorimetric assay refer to previous methods[19],[42].

Assay [5] deals with pro-caspase 3 and PARP in PC-3 cells. Put plainly: Western blotting of pro-caspase 3 and PARP. It is filed as cell-based, human. The following applies: PC-3, 72 h, 1, 2 and 4 μM. How it is done:
as §1
PC-3 cells were treated with the indicated concentrations (1, 2 and 4 µM) of 1i for 72 h, cell were collected and lysed. The protein concentration was measured by BCA method, and equal amount proteins were electrophoresed on 10% SDS-PAGE gel, electrotransferred onto NC membrane, and incubated with appropriate primary and secondary antibodies, protein blots were tested by ECL solution and ChemiDoc XRS+ imaging system (Bio-Rad, USA).

Assay [6] deals with PC-3 cells. Put plainly: Cell cycle analysis (PI staining, flow cytometry). It is filed as cell-based, human. The following applies: PC-3, 48 h.
Description: The cultured cells were treated with these compounds at the indicated concentrations for 48 h, then harvested, and analyzed by flow cytometry. […] Each experiment was performed in triplicate.
The cell cycle arrest on PC-3 and HepG2 cells was detected with PI staining assay (Sigma) as described previously[19]. After treatment with samples at the set concentrations for 48 h, cells were centrifuged and fixed in 70% ethanol at 4 °C refrigerator 12 h and then resuspended in PBS (100 μL RNase A and 400 μL PI). Cellular DNA content was measured using a FACSCalibur flow cytometer with Modfit LT 3.0 software. Twenty thousand cells were collected per sample. Mean values are presented from three independent experiments.
The test system of assay [7] is CHO (Chinese hamster ovary). Put plainly: SRB cytotoxicity assay, CHO normal cells. The following applies: Cricetulus griseus, 72 h, normal cell line. It is filed as cell-based.
Description: as §2, §3, §4

For assay [8], the system named is PC-3 (human prostate cancer). Put plainly: SRB cytotoxicity assay, PC-3. It is filed as cell-based. The following applies: 72 h.
Assay [9] deals with HepG2 (human liver cancer). Kind of assay: SRB cytotoxicity assay, HepG2. It is filed as cell-based. The note with it: 72 h.
The test system of a further assay is cancer cells. Details: method as in PMID 24763364, PMID 27262408. The note with it: ref [19],[33]; cited from earlier work.
In assay [10] the test system is canonical p50/p65 NF-κB signaling in PC-3 cells. Kind of assay: NF-κB luciferase reporter assay, TNF-α-induced. The following applies: 10 μM, 8 h, TNF-α 50 ng/mL. It is filed as cell-based, human. An excerpt: The canonical NF-κB signaling pathway is a target for developing therapeutics for multiple human diseases, including cancer and chronic inflammatory diseases[46],[47]. Many STLs are known modulators of NF-κB signaling[7],[48]. In particular, two famous STLs parthenolide and helenalin have been certified to covalently target Cys38 of NF-κB p65 through hetero-Michael addition between exocyclic methylene butyrolactones and biological thiol of Cys38[49],[50]. […] To test the inhibition of active compound in NF-κB signaling, 1i and parthenolide (P, positive control) were screened for inhibitory activity toward canonical p50/p65 NF-κB signaling with a cellular luciferase assay (Fig. 12)[51]. […] The observation that 1i and P are comparably potent in this assay hints at the possibility that 1i may also have similar properties like 1β-hydroxy alantolactone and parthenolide in cells.
Figure 12 NF-κB-luciferase inhibition assay in PC-3 cells. PC-3 cells with a stably transfected NF-κB luciferase reporter were stimulated with TNF-α (50 ng/mL) (except for noninduced control, Non-Ind) and different dose of parthenolide (P) and 1i for 8 h. Normalized luminescence was plotted as NF-κB luciferase activity compared to control (%).
PC-3 cells (8000 cells/well) were placed in a 96-well plate and the cells were then transfected with pNF-κB-Luc expression plasmid reference to the method.

Assay [11] concerns CHO (Chinese hamster ovary). The note with it: footnote c; ref Dong et al.[19]; cited from earlier work.
In assay [12] the test system is HEp-2 (human larynx epidermal cancer). The note with it: footnote c; ref Dong et al.[19]; cited from earlier work.
Assay [13] deals with HeLa (human cervix cancer). Also noted: method as in Dong et al.[19]. The note with it: footnote c; ref Dong et al.[19]; cited from earlier work.
Setting [14] is: mean ± SD, read-out: IC50 HepG2.

Where two headings read alike, the source gives them in different places.

Turning to `C=C1C(=O)O[C@@H]2C[C@@]3(C)C(=O)CC[C@H](C)C3=C[C@H]12` [1i, 1-carbonyl-alantolactone], the “nuclear morphology (Hoechst 33258), apoptosis” value in the assay with HepG2 cells is given as “Changes of nuclear morphology”; in the assay on PC-3 cells [3] it was “apoptotic tendency was apparent”. The IC50 in [1] was 8.8 ± 0.7 µM; in assay [2] it was 2.7 ± 0.1 µM; in assay [4] it was 3.5 ± 0.9 µM; in assay [7], 2.5 ± 0.2 µM; in [8] (mean ± SD, read-out: IC50 PC-3) it was 2.5 ± 0.8 µM; in assay [8] (read-out: IC50 PC-3 (Table 3, C13-methylene modified derivatives)), above 40 µM. Besides, the IC50 in assay [9] (setting [14]) is 5.1 ± 0.2 µM; in assay [9] (read-out: IC50 HepG2 (Table 3, C13-methylene modified derivatives)) it was above 40 µM. For the same compound, the “selectivity index (IC50 on four cancer cells versus HUVEC cells)” value in assay [1] (comparison of IC50 between four cancer cells and HUVEC) is listed as 2–3. The “pro-caspase 3 and cleavage of PARP (Western blot)” value in assay [5] is “significant dose-dependent decrease in pro-caspase 3 and the cleavage of its substrate PARP”. Moreover, the “%G0/G1” value is on record as 50.5% in the assay with PC-3 cells [6] (1.0 μM), 47.7% in the assay with PC-3 cells [6] (2.0 μM) and 44.6% in the assay with PC-3 cells [6] (4.0 μM). The figures for the “%G2/M” value in the assay with PC-3 cells [6] (1.0 μM), with PC-3 cells [6] (2.0 μM) and in the assay with PC-3 cells [6] (4.0 μM) were 17.5%, 18.5% and 19.5%, respectively. For the same compound, the entries for the “%S” value in the assay on PC-3 cells [6] (1.0 μM), in the assay with PC-3 cells [6] (2.0 μM) and in the assay with PC-3 cells [6] (4.0 μM) were 32.0%, 33.8% and 35.9%, respectively.

Take `C=C1C(=O)OC2CC(C)=C(C(C)CCCOC(C)=O)C(OC(=O)CCCCCCCCCCC)C12` (stereo not shown) [ABL-L, 1-O-acetyl-6-O-lauroylbritannilactone]: in the assay with cancer cells, the “fold stronger suppression against cancer cells compared with ABL” value was 4–10 fold.

For the compound `C=C1C(=O)O[C@H]2[C@H]1CC/C(C)=C/CC[C@@]1(C)O[C@@H]21` [P, parthenolide, reference compound], the “NF-κB luciferase activity compared to control” value in assay [10] came out at 52.1%. In addition, the IC50 is 7.6 ± 0.6 µM in [2]; 6.8 ± 0.3 µM in assay [4]; 5.3 ± 0.7 µM in [7]; 3.4 ± 0.6 µM in assay [8] (mean ± SD, read-out: IC50 PC-3). For the same compound, in the assay on PC-3 cells [6] (4.0 μM), the “%G0/G1” value was 46.2%. Further, the “%G2/M” value in the assay with PC-3 cells [6] (4.0 μM) is given as 18.2%. For the same compound, in the assay with PC-3 cells [6] (4.0 μM), the “%S” value came out at 35.6%.

For `COc1cc([C@@H]2c3cc4c(cc3[C@@H](O[C@@H]3O[C@@H]5CO[C@@H](C)O[C@H]5[C@H](O)[C@H]3O)[C@H]3COC(=O)[C@H]23)OCO4)cc(OC)c1O` [VP-16, etoposide, reference compound], the IC50 was 2.6 ± 0.2 µM in [11]; 4.8 ± 0.5 µM in [12]; 1.9 ± 0.2 µM in assay [1]; 0.6 ± 0.1 µM in [8] (mean ± SD, read-out: IC50 PC-3); 7.6 ± 0.8 µM in assay [9] (setting [14]); 3 ± 0.3 µM in assay [13]. Further, the “nuclear morphology (Hoechst 33258), apoptosis” value in the assay on PC-3 cells [3] is “fragmentation and condensation of chromatin”. Also, the “%G0/G1” value in the assay on PC-3 cells [6] (1.0 μM) turned out to be 28.1%. Also, the “%G2/M” value in the assay on PC-3 cells [6] (1.0 μM) is 42.4%. Besides, in the assay with PC-3 cells [6] (1.0 μM), the “%S” value is 29.5%.
